Data set [1] relates to Klebsiella pneumoniae. The data set can be described thus: Growth inhibition of Klebsiella pneumoniae SIPI-KPN-1712 by broth microdilution method. Format: organism-based. The settings on record: in vitro.
For data set [2], the system named is Klebsiella pneumoniae. The data set can be described thus: Synergistic antibacterial activity against Klebsiella pneumoniae SIPI-KPN-1712 assessed as polymixin B MIC at 4 ug/ml by broth microdilution method (reference value: 32 ug/ml). Format: functional. In general terms: In broth dilution the organism is exposed to a series of concentrations in liquid medium.

Data set [3] has as its system Klebsiella pneumoniae. The data set can be described thus: Synergistic antibacterial activity against Klebsiella pneumoniae SIPI-KPN-1712 assessed as fractional Inhibitory concentration index in presence of polymixin B at 2 ug/ml by broth microdilution method. The class given is functional.
The subject of data set [4] is Klebsiella pneumoniae. The data set can be described thus: Synergistic antibacterial activity against Klebsiella pneumoniae SIPI-KPN-1712 assessed as fold reduction in polymixin B MIC at 4 ug/ml by broth microdilution method relative to polymixin B alone. Format: functional.

With `COC1CCCc2nc(Nc3ccc(Br)cc3)sc21` (configuration not stated), the MIC in data set [1] is above 128 µg/mL; in data set [2], 2 µg/mL. Besides, the “fractional inhibitory concentration index (FICI)” value in data set [3] is 0.09. The “fold change (FC)” value in data set [4] was determined as 16.

Turning to `CCCC(CCC)OC1CCCc2nc(Nc3ccc(Cl)cc3)sc21` (configuration not stated), the values for the MIC in data set [1] and in data set [2] were above 128 µg/mL and 4 µg/mL, respectively. In data set [3], the “fractional inhibitory concentration index (FICI)” value was determined as 0.16.

In the case of `CCOC1CCCc2nc(Nc3ccc(C)cc3)sc21` (configuration not stated), the MIC in data set [1] was above 128 µg/mL; in data set [2], 4 µg/mL. For the same compound, in data set [3], the “fractional inhibitory concentration index (FICI)” value was 0.16.

Consider `COC1CCCc2nc(Nc3ccc(Cl)cc3Cl)sc21` (configuration not stated), for which the MIC in data set [1] was above 128 µg/mL; in data set [2] it was 8 µg/mL. For the same compound, the “fractional inhibitory concentration index (FICI)” value in data set [3] is 0.28.

Regarding `COC1CCCc2nc(Nc3c(Cl)cccc3Cl)sc21` (configuration not stated), the results for the MIC in data set [1] and in data set [2] were above 128 µg/mL and 1 µg/mL, respectively. In addition, the “fractional inhibitory concentration index (FICI)” value in data set [3] turned out to be 0.06.

Regarding `CCCOC1CCCc2nc(Nc3ccc(F)cc3)sc21` (configuration not stated), the MIC in data set [1] was above 128 µg/mL; in data set [2] it was 16 µg/mL. Further, the “fractional inhibitory concentration index (FICI)” value in data set [3] came out at 0.53.

With `COC1CCCc2nc(Nc3cccnc3)sc21` (configuration not stated), the MIC in data set [1] was above 128 µg/mL; in data set [2], 16 µg/mL. Further, in data set [3], the “fractional inhibitory concentration index (FICI)” value was determined as 0.53.

For the compound `COC1CCCc2nc(Nc3ccc(NC(C)=O)cc3)sc21` (configuration not stated), the values for the MIC in data set [1] and in data set [2] were above 128 µg/mL and 32 µg/mL, respectively. Further, the “fractional inhibitory concentration index (FICI)” value in data set [3] came out at 1.03.

Consider `Cc1ccc(Nc2nc3c(s2)C(OC(C)C)CCC3)cc1` (configuration not stated), for which the MIC in data set [1] was above 128 µg/mL; in data set [2], 16 µg/mL. In data set [3], the “fractional inhibitory concentration index (FICI)” value is given as 0.53.

For `O=C(OC1CCCc2nc(Nc3ccc(F)cc3)sc21)n1ccnc1` (configuration not stated), the MIC was above 128 µg/mL in data set [1] and 32 µg/mL in data set [2]. In addition, the “fractional inhibitory concentration index (FICI)” value in data set [3] is 1.03.

Consider `COC1CCCc2nc(Nc3ccc(I)cc3)sc21` (configuration not stated), for which the MIC in data set [1] was above 128 µg/mL; in data set [2], 16 µg/mL. The “fractional inhibitory concentration index (FICI)” value in data set [3] was found to be 0.53.

In the case of `OC1CCCc2nc(Nc3ccc(Cl)cn3)sc21` (configuration not stated), the MIC in data set [1] was above 128 µg/mL; in data set [2], 16 µg/mL. Also, in data set [3], the “fractional inhibitory concentration index (FICI)” value came to 0.53.

For the compound `CCOC1CCCc2nc(Nc3ccc(Cl)cn3)sc21` (configuration not stated), the MIC is above 128 µg/mL in data set [1] and 16 µg/mL in data set [2]. In addition, the “fractional inhibitory concentration index (FICI)” value in data set [3] came out at 0.53.

For the compound `COC1CCCc2nc(Nc3cccc(C)c3)sc21` (configuration not stated), the values for the MIC in data set [1] and in data set [2] were above 128 µg/mL and 32 µg/mL, respectively. For the same compound, the “fractional inhibitory concentration index (FICI)” value in data set [3] turned out to be 1.03.

For the compound `FC(F)(F)c1ccc2nc(Nc3ccccc3)sc2c1`, the MIC is above 128 µg/mL in data set [1] and 16 µg/mL in data set [2]. Besides, the “fractional inhibitory concentration index (FICI)” value in data set [3] turned out to be 0.53.

Take `Cc1ccc(Nc2nc3c(s2)C(OC(=O)n2ccnc2)CCC3)cc1` (configuration not stated): the MIC in data set [1] was above 128 µg/mL; in data set [2] it was 32 µg/mL. Moreover, the “fractional inhibitory concentration index (FICI)” value in data set [3] was 1.03.

As for `CC(C)OC1CCCc2nc(Nc3ccc(Cl)cc3)sc21` (configuration not stated), the MIC in data set [1] is above 128 µg/mL; in data set [2], 1 µg/mL. In addition, in data set [3], the “fractional inhibitory concentration index (FICI)” value stood at 0.06.

Consider `CCCOC1CCCc2nc(Nc3ccc(C)cc3)sc21` (configuration not stated), for which the MIC in data set [1] was above 128 µg/mL; in data set [2], 16 µg/mL. In addition, the “fractional inhibitory concentration index (FICI)” value in data set [3] was determined as 0.53.

Regarding `COC1CCCc2nc(Nc3ccc4ccccc4n3)sc21` (configuration not stated), the values for the MIC in data set [1] and in data set [2] were above 128 µg/mL and 32 µg/mL, respectively. Also, the “fractional inhibitory concentration index (FICI)” value in data set [3] came to 1.03.

`COC1CCCc2nc(Nc3ccc(Cl)cn3)sc21` (configuration not stated): the MIC in data set [1] was above 128 µg/mL; in data set [2], 16 µg/mL. Also, the “fractional inhibitory concentration index (FICI)” value in data set [3] worked out at 0.53.

In the case of `CCCCOC1CCCc2nc(Nc3ccc(Cl)cc3)sc21` (configuration not stated), the results for the MIC in data set [1] and in data set [2] were above 128 µg/mL and 16 µg/mL, respectively. For the same compound, the “fractional inhibitory concentration index (FICI)” value in data set [3] was found to be 0.53.

As to `O=C(OC1CCCc2nc(Nc3ccc(Cl)cc3)sc21)n1ccnc1` (configuration not stated), the MIC in data set [1] is above 128 µg/mL; in data set [2] it was 32 µg/mL. In data set [3], the “fractional inhibitory concentration index (FICI)” value is given as 1.03.
